Test results as given in patent publication US12415834B2, “GhR-binding peptide and composition comprising same” (priority 2021, dated 2025).
Starred links: 1 amine or outer side, 2 acyl side, 3 side chain; linkers in the order of their positions; H or OH if unused. Positions of bridges follow the written chain, without caps; N, C: chain ends. Non-standard residues stand in square brackets, D forms with d. Residues, ends and D or L forms follow the SMILES beside them. Groups on a side chain read outwards from the residue. *: point of attachment. X14 = NC(=O)[C@H](CCCCN*)NC(=O)COCCOCCNC(=O)COCCOCCNC(=O)CC[C@H](NC(=O)CC[C@H](NC(=O)CCCCCCCCCCCCCCC(=O)O)C(=O)O)C(=O)O; X3 = NC(=O)[C@H](CCCCN*)NC(=O)CC[C@H](NC(=O)CC[C@H](NC(=O)CCCCCCCCCCCCCCC(=O)O)C(=O)O)C(=O)O; X10 = NC(=O)[C@H](CCCCN*)NC(=O)CC[C@H](NC(=O)CC[C@H](NC(=O)CCCc1ccc(I)cc1)C(=O)O)C(=O)O; Trp(1-CH2CO) = O=C([C@H](Cc1cn(CC(=O)[*:3])c2ccccc12)N[*:1])[*:2]; Trp(5-OMe) = COc1ccc2[nH]cc(C[C@H](N)C(=O)O)c2c1; Butanoyl(4-(4-I-phenyl)) = O=C(CCCc1ccc(I)cc1)*; Trp(5-OH) = N[C@@H](Cc1c[nH]c2ccc(O)cc12)C(=O)O; Phe(4-COOH) = N[C@@H](Cc1ccc(C(=O)O)cc1)C(=O)O; Piperazinyl(4-CH2COOH) = O=C(O)CN1CCN(*)CC1; X7 = O=C(O)CN1CCC(N[*:1])(C(=O)[*:2])CC1; C16 diacid = O=C(O)CCCCCCCCCCCCCCC(=O)*; γGlu = O=C(O)[C@H](CCC(=O)[*:2])N[*:1]; hArg = N=C(N)NCCCC[C@H](N)C(=O)O; NMeK = CN[C@@H](CCCCN)C(=O)O; X16 = CN(CC(=O)[*:1])[*:2]; Aib = CC(C)(N)C(=O)O; CO = O=C([*:1])[*:2]

The molecules below were run against T1, Recombinant human GhR-Fc protein (Homo sapiens, UniProt P10912) (assay: SPR binding assay (Biacore T200, single-cycle kinetics) of peptides against immobilized human GhR-Fc). Details: SPR, hGhR; Table 1 bicyclic peptides; KD calculated from ka and kd; read-out: KD.
T1 construct: purchased R&D Systems
Method: SPR assay was performed using Biacore T200 (cytiva: Former GE Healthcare). After the equilibration of Series S Sensor Chip CM5 (produced by cytiva: Former GE Healthcare) with Running Buffer (HBS-EP with 1% (v/v) DMSO), an EDC/NHS mixture was injected at a flow rate of 10 μL/min for 7 minutes to thereby activate the functional groups on sensor chip. Recombinant human GhR-Fc protein (R&D Systems) in 10 mM Acetate (pH 4.0) was injected immobilized to at a flow rate of 5 μL/min. It took 7 minutes to immobilize the GhR on the substrate surfaces of the sensor chip. Then Ethanolamine was injected at a flow rate of 10 μL/min for 7 minutes. 1M Ethanolamine (aq.) was injected at a flow rate of 10 μL/min for 420 seconds for capping.
Using these Peptide Samples, kinetics of peptides against human GhR-Fc protein were measured. The method adopted for sample measurement was a single-cycle kinetics method. The analysis was conducted using the evaluation software provided with Biacore T200. A DMSO correction curve obtained by solvent correction measurements was applied for the analysis. Kinetics fitting was done on the difference data obtained by subtracting the baseline data from sample measurement data. KD values were calculated based on the association rate constant (ka) and dissociation rate constant (kd). […]

T1 sequence (P10912 with tags, fused parts or gaps limits assumed): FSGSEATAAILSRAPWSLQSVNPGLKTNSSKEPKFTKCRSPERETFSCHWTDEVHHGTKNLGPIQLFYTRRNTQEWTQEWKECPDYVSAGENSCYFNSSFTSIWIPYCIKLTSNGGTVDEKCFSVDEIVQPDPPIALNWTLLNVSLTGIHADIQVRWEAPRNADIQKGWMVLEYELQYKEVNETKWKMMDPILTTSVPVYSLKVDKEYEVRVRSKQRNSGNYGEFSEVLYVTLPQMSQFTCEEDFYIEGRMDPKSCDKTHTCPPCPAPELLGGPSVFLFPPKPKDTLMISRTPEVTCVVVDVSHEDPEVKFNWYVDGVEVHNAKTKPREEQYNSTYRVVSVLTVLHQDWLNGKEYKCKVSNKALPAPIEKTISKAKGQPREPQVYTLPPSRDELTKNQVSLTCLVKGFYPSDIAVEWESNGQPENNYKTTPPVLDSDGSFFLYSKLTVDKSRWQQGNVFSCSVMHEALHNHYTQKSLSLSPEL

Row | Compound | Kd [nM]
1 | CC(C)[C@@H]1NC(=O)[C@H](C(C)C)NC(=O)[C@@H]2CCCCNC(=O)Cn3cc(c4ccccc43)C[C@H](NC(=O)[C@H](CC(N)=O)NC(=O)[C@H](CO)NC1=O)C(=O)N[C@@H](Cc1ccc(C(=O)O)cc1)C(=O)N[C@@H](CCCCN)C(=O)N[C@@H](Cc1c[nH]c3ccc(O)cc13)C(=O)NC(C)(C)C(=O)N[C@@H](C(C)C)C(=O)N[C@H](C(=O)NCCCC[C@H](NC(=O)COCCOCCNC(=O)COCCOCCNC(=O)CC[C@H](NC(=O)CC[C@H](NC(=O)CCCCCCCCCCCCCCC(=O)O)C(=O)O)C(=O)O)C(N)=O)CSCC(=O)N[C@@H](Cc1ccc(C(=O)O)cc1)C(=O)N2C [Compound 64] ({CH2CO}-[Phe(4-COOH)][NMeK]VVSN[Trp(1-CH2CO)][Phe(4-COOH)]K[Trp(5-OH)][Aib]VC-X14; lactam 2-7; thioether N-13) | 3.61
2 | CC(C)[C@@H]1NC(=O)[C@H](C(C)C)NC(=O)[C@@H]2CCCCNC(=O)Cn3cc(c4ccccc43)C[C@H](NC(=O)[C@H](CC(N)=O)NC(=O)[C@H](CO)NC1=O)C(=O)N[C@@H](Cc1ccc(O)cc1)C(=O)N[C@@H](CCCCN)C(=O)N[C@@H](Cc1c[nH]c3ccc(O)cc13)C(=O)NC1(CCN(CC(=O)O)CC1)C(=O)N[C@@H](C(C)C)C(=O)N[C@H](C(=O)NCCCC[C@H](NC(=O)CC[C@H](NC(=O)CC[C@H](NC(=O)CCCCCCCCCCCCCCC(=O)O)C(=O)O)C(=O)O)C(N)=O)CSCC(=O)N[C@@H](Cc1ccc(C(=O)O)cc1)C(=O)N2C [Compound 18] ({CH2CO}-[Phe(4-COOH)][NMeK]VVSN[Trp(1-CH2CO)]YK[Trp(5-OH)][X7]VC-X3; lactam 2-7; thioether N-13) | 2.4

Further lines, results first:

Row | Kd [nM] | Compound
3 | 1.93 | CC(C)[C@@H]1NC(=O)[C@H](C(C)C)NC(=O)[C@@H]2CCCCNC(=O)Cn3cc(c4ccccc43)C[C@H](NC(=O)[C@H](CC(N)=O)NC(=O)[C@H](CO)NC1=O)C(=O)N[C@@H](Cc1ccc(O)cc1)C(=O)N[C@@H](CCCCN)C(=O)N[C@@H](Cc1c[nH]c3ccc(O)cc13)C(=O)NC(C)(C)C(=O)N[C@@H](C(C)C)C(=O)N[C@H](C(=O)NCCCC[C@H](NC(=O)CC[C@H](NC(=O)CC[C@H](NC(=O)CCCCCCCCCCCCCCC(=O)O)C(=O)O)C(=O)O)C(N)=O)CSCC(=O)N[C@@H](Cc1ccc(C(=O)O)cc1)C(=O)N2C [Compound 19] ({CH2CO}-[Phe(4-COOH)][NMeK]VVSN[Trp(1-CH2CO)]YK[Trp(5-OH)][Aib]VC-X3; lactam 2-7; thioether N-13)
4 | 1.71 | CC(C)[C@@H]1NC(=O)[C@H](C(C)C)NC(=O)[C@@H]2CCCCNC(=O)CN(C)C(=O)Cn3cc(c4ccccc43)C[C@H](NC(=O)[C@H](CC(N)=O)NC(=O)[C@H](CO)NC1=O)C(=O)N[C@@H](Cc1ccc(O)cc1)C(=O)N[C@@H](CCCCN)C(=O)N[C@@H](Cc1c[nH]c3ccc(O)cc13)C(=O)NC(C)(C)C(=O)N[C@@H](C(C)C)C(=O)N[C@H](C(=O)NCC(N)=O)CSCC(=O)N[C@@H](Cc1ccc(O)cc1)C(=O)N2C [Compound 3] ({CH2CO}-Y[NMeK]VVSN[Trp(1-CH2CO)]YK[Trp(5-OH)][Aib]VCG-NH2; linker 2-7 via X16; thioether N-13)
5 | 1.59 | CC(C)[C@@H]1NC(=O)[C@H](C(C)C)NC(=O)[C@@H]2CCCCNC(=O)Cn3cc(c4ccccc43)C[C@H](NC(=O)[C@H](CC(N)=O)NC(=O)[C@H](CO)NC1=O)C(=O)N[C@@H](Cc1ccc(C(=O)O)cc1)C(=O)N[C@@H](CCCCN)C(=O)N[C@@H](Cc1c[nH]c3ccc(O)cc13)C(=O)NC(C)(C)C(=O)N[C@@H](C(C)C)C(=O)N[C@H](C(=O)NCCCC[C@H](NC(=O)CC[C@H](NC(=O)CC[C@H](NC(=O)CCCc1ccc(I)cc1)C(=O)O)C(=O)O)C(N)=O)CSCC(=O)N[C@@H](Cc1ccc(O)cc1)C(=O)N2C [Compound 26] ({CH2CO}-Y[NMeK]VVSN[Trp(1-CH2CO)][Phe(4-COOH)]K[Trp(5-OH)][Aib]VC-X10; lactam 2-7; thioether N-13)
6 | 1.57 | CC(C)[C@@H]1NC(=O)[C@H](C(C)C)NC(=O)[C@@H]2CCCCNC(=O)Cn3cc(c4ccccc43)C[C@H](NC(=O)[C@H](CC(N)=O)NC(=O)[C@H](CO)NC1=O)C(=O)N[C@@H](Cc1ccc(O)cc1)C(=O)N[C@@H](CCCCN)C(=O)N[C@@H](Cc1c[nH]c3ccc(O)cc13)C(=O)NC1(CCN(CC(=O)O)CC1)C(=O)N[C@@H](C(C)C)C(=O)N[C@H](C(=O)NCCCC[C@H](NC(=O)CC[C@H](NC(=O)CC[C@H](NC(=O)CCCCCCCCCCCCCCC(=O)O)C(=O)O)C(=O)O)C(N)=O)CSCC(=O)N[C@@H](Cc1ccc(O)cc1)C(=O)N2C [Compound 29] ({CH2CO}-Y[NMeK]VVSN[Trp(1-CH2CO)]YK[Trp(5-OH)][X7]VC-X3; lactam 2-7; thioether N-13)
7 | 1.25 | CC(C)[C@@H]1NC(=O)[C@H](C(C)C)NC(=O)[C@@H]2CCCCNC(=O)Cn3cc(c4ccccc43)C[C@H](NC(=O)[C@H](CC(N)=O)NC(=O)[C@H](CO)NC1=O)C(=O)N[C@@H](Cc1ccc(O)cc1)C(=O)N[C@@H](CCCCN)C(=O)N[C@@H](Cc1c[nH]c3ccc(O)cc13)C(=O)NC(C)(C)C(=O)N[C@@H](C(C)C)C(=O)N[C@H](C(=O)NCC(=O)N1CCC[C@H]1C(=O)N[C@H](CO)C(=O)N[C@H](CO)C(=O)N[C@H](CO)C(=O)N[C@@H](CCCCNC(=O)CC[C@H](NC(=O)CC[C@H](NC(=O)CCCCCCCCCCCCCCC(=O)O)C(=O)O)C(=O)O)C(N)=O)CSCC(=O)N[C@@H](Cc1ccc(C(=O)O)cc1)C(=O)N2C [Compound 20] ({CH2CO}-[Phe(4-COOH)][NMeK]VVSN[Trp(1-CH2CO)]YK[Trp(5-OH)][Aib]VCGP[dS][dS][dS]K([γGlu-γGlu-C16 diacid])-NH2; lactam 2-7; thioether N-13)
8 | 0.98 | CC(C)[C@@H]1NC(=O)[C@H](C(C)C)NC(=O)[C@@H]2CCCCNC(=O)Cn3cc(c4ccccc43)C[C@H](NC(=O)[C@H](CC(N)=O)NC(=O)[C@H](CO)NC1=O)C(=O)N[C@@H](Cc1ccc(O)cc1)C(=O)N[C@@H](CCCCN)C(=O)N[C@@H](Cc1c[nH]c3ccc(O)cc13)C(=O)NC(C)(C)C(=O)N[C@@H](C(C)C)C(=O)N[C@H](C(=O)NCCCC[C@H](NC(=O)CC[C@H](NC(=O)CC[C@H](NC(=O)CCCc1ccc(I)cc1)C(=O)O)C(=O)O)C(N)=O)CSCC(=O)N[C@@H](Cc1ccc(O)cc1)C(=O)N2C [Compound 32] ({CH2CO}-Y[NMeK]VVSN[Trp(1-CH2CO)]YK[Trp(5-OH)][Aib]VC-X10; lactam 2-7; thioether N-13)
9 | 0.96 | CC(C)[C@@H]1NC(=O)[C@H](C(C)C)NC(=O)[C@@H]2CCCCNC(=O)Cn3cc(c4ccccc43)C[C@H](NC(=O)[C@H](CC(N)=O)NC(=O)[C@H](CO)NC1=O)C(=O)N[C@@H](Cc1ccc(C(=O)O)cc1)C(=O)N[C@@H](CCCCNC(=N)N)C(=O)N[C@@H](Cc1c[nH]c3ccc(O)cc13)C(=O)NC(C)(C)C(=O)N[C@@H](C(C)C)C(=O)N[C@H](C(=O)NCCCC[C@H](NC(=O)CC[C@H](NC(=O)CC[C@H](NC(=O)CCCc1ccc(I)cc1)C(=O)O)C(=O)O)C(N)=O)CSCC(=O)N[C@@H](Cc1ccc(C(=O)O)cc1)C(=O)N2C [Compound 7] ({CH2CO}-[Phe(4-COOH)][NMeK]VVSN[Trp(1-CH2CO)][Phe(4-COOH)][hArg][Trp(5-OH)][Aib]VC-X10; lactam 2-7; thioether N-13)

Same assay, conditions: SPR, hGhR; Table 2 monocyclic peptides; KD calculated from ka and kd; read-out: KD

Row | Kd [nM] | Compound
10 | 4.13 | COc1ccc2[nH]cc(C[C@@H]3NC(=O)[C@H](CC(N)=O)NC(=O)[C@H](CO)NC(=O)[C@H](C(C)C)NC(=O)[C@H](C(C)C)NC(=O)[C@H](CCCCNC(=O)CC[C@H](NC(=O)CC[C@H](NC(=O)CCCc4ccc(I)cc4)C(=O)O)C(=O)O)N(C)C(=O)[C@H](Cc4ccc(O)cc4)NC(=O)CSC[C@@H](C(N)=O)NC(=O)[C@H](C(C)C)NC(=O)C4(CCN(CC(=O)O)CC4)NC(=O)[C@H](Cc4c[nH]c5ccc(O)cc45)NC(=O)[C@H](CCCCN)NC(=O)[C@H](Cc4ccc(C(=O)O)cc4)NC3=O)c2c1 [Compound 50] ({CH2CO}-Y[NMeK]([γGlu-γGlu-Butanoyl(4-(4-I-phenyl))])VVSN[Trp(5-OMe)][Phe(4-COOH)]K[Trp(5-OH)][X7]VC-NH2; thioether N-13)
11 | 3.36 | COc1ccc2[nH]cc(C[C@@H]3NC(=O)[C@H](CC(N)=O)NC(=O)[C@H](CO)NC(=O)[C@H](C(C)C)NC(=O)[C@H](C(C)C)NC(=O)[C@H](CCCCNC(=O)CC[C@H](NC(=O)CC[C@H](NC(=O)CCCc4ccc(I)cc4)C(=O)O)C(=O)O)N(C)C(=O)[C@H](Cc4ccc(O)cc4)NC(=O)CSC[C@@H](C(N)=O)NC(=O)[C@H](C(C)C)NC(=O)C(C)(C)NC(=O)[C@H](Cc4c[nH]c5ccc(O)cc45)NC(=O)[C@H](CCCCN)NC(=O)[C@H](Cc4ccc(C(=O)O)cc4)NC3=O)c2c1 [Compound 53] ({CH2CO}-Y[NMeK]([γGlu-γGlu-Butanoyl(4-(4-I-phenyl))])VVSN[Trp(5-OMe)][Phe(4-COOH)]K[Trp(5-OH)][Aib]VC-NH2; thioether N-13)
12 | 7.38 | COc1ccc2[nH]cc(C[C@@H]3NC(=O)[C@H](CC(N)=O)NC(=O)[C@H](CO)NC(=O)[C@H](C(C)C)NC(=O)[C@H](C(C)C)NC(=O)[C@H](CCCCNC(=O)CC[C@H](NC(=O)CC[C@H](NC(=O)CCCc4ccc(I)cc4)C(=O)O)C(=O)O)N(C)C(=O)[C@H](Cc4ccc(O)cc4)NC(=O)CSC[C@@H](C(N)=O)NC(=O)[C@H](C(C)C)NC(=O)C(C)(C)NC(=O)[C@H](Cc4c[nH]c5ccc(O)cc45)NC(=O)[C@H](CCCCNC(=O)N4CCN(CC(=O)O)CC4)NC(=O)[C@H](Cc4ccc(C(=O)O)cc4)NC3=O)c2c1 [Compound 47] ({CH2CO}-Y[NMeK]([γGlu-γGlu-Butanoyl(4-(4-I-phenyl))])VVSN[Trp(5-OMe)][Phe(4-COOH)]K([CO-Piperazinyl(4-CH2COOH)])[Trp(5-OH)][Aib]VC-NH2; thioether N-13)
